Counter-ions that a name gives are not always drawn. Like-named read-outs stand apart in the source and are kept apart here.
Key:
Cryptosporidium parvum = experiment: qRT-PCR assay of the growth of C. parvum in vitro in HCT-8 host cells (primary and secondary screening, EC50); format: cell-based; conditions: Cryptosporidium parvum, HCT-8; for inhibition at 3.3 µM: secondary screening at 3.3 uM, read-out: % Inhibition (3.3 uM)
[1] = primary screening at 10 uM, read-out: Inhibition (%)
[2] = primary screening at 10 uM, treated vs control

Compound | inhibition at 10 µM (Cryptosporidium parvum; [1]) [%] | Hs18S ΔCT (HCT-8 host cells (Hs18S); [2]) | cytotoxicity at 10 µM (in vitro) [%] | Hs18S ΔCT (HCT-8 host cells (Hs18S); human, 41 h, 10 μM) | cytotoxicity at 41 h, 10 µM (in vitro; human) [%] | further results
C=CCc1ccc2c(c1)OCO2 [SAFROLE] | 76.2 | -0.44 | -35.3 | – | – | inhibition at 3.3 µM (Cryptosporidium parvum): 8%
OCc1ccccc1O[C@@H]1O[C@H](CO)[C@@H](O)[C@H](O)[C@H]1O [SALICIN] | 37.1 | – | – | 0.58 | 32.9 | –
OC[C@H]1O[C@@H](OCCc2ccc(O)cc2)[C@H](O)[C@@H](O)[C@@H]1O [SALIDROSIDE] | 14.8 | – | – | -0.22 | -16.1 | –
COc1cc2c(cc1OC)[C@H](C)NCC2 [SALSOLIDINE] | 47.1 | 0.32 | – | – | – | cytotoxicity at 41 h, 10 µM (in vitro): 20%
C[n+]1cc2c3c(ccc2c2ccc4cc5c(cc4c21)OCO5)OCO3 [SANGUINARINE SULFATE] | 18.6 | 0.07 | 4.9 | – | – | –
CC1=C2[C@H]3OC(=O)[C@@H](C)[C@@H]3CC[C@@]2(C)C=CC1=O [SANTONIN] | 9.41 | 0.18 | 11.8 | – | – | –
COc1ccc2c(c1)OC/C(=C\c1ccc(OC)c(O)c1)C2=O [SAPPANONE A DIMETHYL ETHER] | 11.1 | – | – | 0.18 | 11.8 | –
COc1ccc2c(c1)OC/C(=C/c1ccc(OC)c(OC)c1)C2=O [SAPPANONE A TRIMETHYL ETHER] | 3.07 | 0.23 | 14.7 | – | – | –
C=C[C@](C)(O)CC[C@@H]1[C@@]2(C)CCCC(C)(C)[C@@H]2CC[C@@]1(C)O [SCLAREOL] | 7.29 | – | – | -0.15 | -10.7 | –
CN1[C@@H]2C[C@@H](OC(=O)[C@H](CO)c3ccccc3)C[C@H]1[C@@H]1O[C@@H]12 [SCOPOLAMINE HYDROBROMIDE] | 14 | -0.37 | -29.6 | – | – | –
O=C1C=C2C=C[C@@H]3C[C@@]2(O1)[C@H]1CCCCN31 [SECURININE] | 9.24 | 0.05 | 3.6 | – | – | –
O=C(O)c1cc(O)c2c(c1)[C@H]([C@H]1c3cc(C(=O)O)cc(O)c3C(=O)c3c(O[C@@H]4O[C@H](CO)[C@@H](O)[C@H](O)[C@H]4O)cccc31)c1cccc(O[C@@H]3O[C@H](CO)[C@@H](O)[C@H](O)[C@H]3O)c1C2=O [SENNOSIDE A] | -4.71 | -0.08 | -6.1 | – | – | –
NCCc1c[nH]c2ccc(O)cc12 [SEROTONIN HYDROCHLORIDE] | 10.2 | -0.40 | -31.7 | – | – | –
COc1cc(C2Oc3cc([C@H]4Oc5cc(O)cc(O)c5C(=O)[C@@H]4O)ccc3OC2CO)ccc1O (stereo partly drawn) [SILIBININ] | 93.5 | – | – | -0.02 | -1.4 | inhibition at 3.3 µM (Cryptosporidium parvum): -30%
COc1cc(/C=C/C(=O)O)cc(OC)c1OC [SINAPIC ACID METHYL ETHER] | -20.8 | 0.66 | 36.6 | – | – | –
COc1ccc(-c2cc(=O)c3c(OC)c(OC)c(OC)cc3o2)cc1OC [SINENSETIN] | 42.8 | – | – | 0.39 | 23.6 | –
CO[C@H]1C[C@@H]2CC[C@@H](C)[C@@](O)(O2)C(=O)C(=O)N2CCCC[C@H]2C(=O)O[C@H]([C@H](C)C[C@@H]2CC[C@@H](O)[C@H](OC)C2)CC(=O)[C@H](C)/C=C(\C)[C@@H](O)[C@@H](OC)C(=O)[C@H](C)C[C@H](C)/C=C/C=C/C=C/1C [SIROLIMUS] | 76.6 | – | – | 0.94 | 47.9 | inhibition at 3.3 µM (Cryptosporidium parvum): 35%
CN[C@@H]1[C@@H](O)[C@@H](O[C@@H]2[C@@H](O)[C@H](O[C@H]3OC(CN)=CC[C@H]3N)[C@@H](N)C[C@H]2N)OC[C@]1(C)O [SISOMICIN SULFATE] | 41.1 | – | – | -0.11 | -7.8 | –
CC[C@H](CC[C@@H](C)[C@H]1CC[C@H]2[C@@H]3CC=C4C[C@@H](OC(C)=O)CC[C@]4(C)[C@H]3CC[C@]12C)C(C)C [SITOSTERYL ACETATE] | -3.86 | – | – | -0.17 | -12.4 | –
C[C@@H]1CC[C@@]2(NC1)O[C@H]1C[C@H]3[C@@H]4CC=C5C[C@@H](O)CC[C@]5(C)[C@H]4CC[C@]3(C)[C@H]1[C@@H]2C [SOLASODINE] | -28.3 | 0.07 | 4.6 | – | – | –
OC[C@@H](O)[C@@H](O)[C@H](O)[C@@H](O)CO [SORBITOL] | -33.8 | – | – | -0.18 | -13.2 | –
CC(=O)N[C@@H](CC(=O)N[C@@H](CCC(=O)O)C(=O)O)C(=O)O [SPAGLUMIC ACID] | 31.3 | 0.18 | 11.9 | – | – | –

Compound | inhibition at 10 µM (Cryptosporidium parvum; [1]) [%] | Hs18S ΔCT (HCT-8 host cells (Hs18S); [2]) | cytotoxicity at 10 µM (in vitro) [%] | Hs18S ΔCT (HCT-8 host cells (Hs18S); human, 41 h, 10 μM) | cytotoxicity at 41 h, 10 µM (in vitro; human) [%] | further results
C1CCN2C[C@@H]3C[C@@H](CN4CCCC[C@@H]34)[C@H]2C1 [SPARTEINE SULFATE] | -14.6 | 0.04 | 3 | – | – | –
NCCCCNCCCN [SPERMIDINE TRIHYDROCHLORIDE] | 23.9 | – | – | -0.63 | -54.4 | –
NCCCNCCCCNCCCN [SPERMINE] | -7.42 | – | – | -0.43 | -35.1 | –
COc1cc2ccc(=O)oc2c2ccoc12 [SPHONDIN] | -5.49 | 0.32 | 20.1 | – | – | –
COc1cc(C)c2c(c1C=O)Oc1c(c(C)c(O)c3c1C(O)OC3=O)OC2=O (stereo not drawn) [STICTIC ACID] | -0.45 | – | – | 0.08 | 5.5 | –
CC[C@H](/C=C/[C@@H](C)[C@H]1CC[C@H]2[C@@H]3CC=C4C[C@@H](O)CC[C@]4(C)[C@H]3CC[C@]12C)C(C)C [STIGMASTEROL] | -18 | 0.96 | 48.6 | – | – | –
[H]/N=C(/N)N[C@H]1[C@H](O)[C@@H](O)[C@H](O[C@@H]2O[C@@H](C)[C@](O)(C=O)[C@H]2O[C@@H]2O[C@@H](CO)[C@H](O)[C@@H](O)[C@@H]2NC)[C@@H](N/C(N)=N\[H])[C@@H]1O [STREPTOMYCIN SULFATE] | 15.4 | – | – | -0.10 | -7.1 | –
O=C1C[C@@H]2OCC=C3CN4CC[C@]56c7ccccc7N1[C@H]5[C@H]2[C@H]3C[C@H]46 [STRYCHNINE] | – | – | -23.5 | – | – | inhibition at 10 µM (Cryptosporidium parvum): 29%; Hs18S ΔCT (HCT-8 host cells (Hs18S)): -0.30
COc1cc(C(=O)O)cc(OC)c1O [SYRINGIC ACID] | 3.63 | -0.26 | -20 | – | – | –
C=CC[C@@H]1/C=C(\C)C[C@H](C)C[C@H](OC)[C@H]2O[C@@](O)(C(=O)C(=O)N3CCCC[C@H]3C(=O)O[C@H](/C(C)=C/[C@@H]3CC[C@@H](O)[C@H](OC)C3)[C@H](C)[C@@H](O)CC1=O)[C@H](C)C[C@@H]2OC [TACROLIMUS] | 75.6 | – | – | 0.16 | 10.4 | inhibition at 3.3 µM (Cryptosporidium parvum): -14%
CN(C)[C@@H]1C(O)=C(C(N)=O)C(=O)[C@@]2(O)C(O)=C3C(=O)c4c(O)cccc4[C@@](C)(O)[C@H]3C[C@@H]12 [TETRACYCLINE HYDROCHLORIDE] | -17.3 | – | -24.3 | – | – | Hs18S ΔCT (HCT-8 host cells (Hs18S)): -0.31
COc1ccc2cc1Oc1ccc(cc1)C[C@H]1c3cc(c(OC)cc3CCN1C)Oc1c(OC)c(OC)cc3c1[C@H](C2)N(C)CC3 [TETRANDRINE] | 80.4 | – | – | -0.04 | -2.5 | inhibition at 3.3 µM (Cryptosporidium parvum): 1%
O=C(O[C@@H]1Cc2c(O)cc(O)cc2O[C@@H]1c1cc(O)c(=O)c2c(O)c(O)cc([C@H]3Oc4cc(O)cc(O)c4C[C@H]3O)c2c1)c1cc(O)c(O)c(O)c1 [THEAFLAVIN MONOGALLATES] | 25.6 | – | – | -0.10 | -7.4 | –
O=c1c(O)cc([C@H]2Oc3cc(O)cc(O)c3C[C@H]2O)cc2c([C@H]3Oc4cc(O)cc(O)c4C[C@H]3O)cc(O)c(O)c12 [THEAFLAVIN] | 10.2 | – | – | 0.11 | 7.6 | –
Cn1cnc2c1c(=O)[nH]c(=O)n2C [THEOBROMINE] | -18.1 | – | – | 0.03 | 2.2 | –
Cn1c(=O)c2[nH]cnc2n(C)c1=O [THEOPHYLLINE] | 20.5 | -0.29 | -22.6 | – | – | –
CC1=CC(=O)C(C(C)C)=CC1=O [THYMOQUINONE] | 3.13 | – | – | -0.08 | -5.8 | –
C[C@@H]1CC[C@@]2(OC1)O[C@H]1C[C@H]3[C@@H]4CC[C@H]5C[C@@H](O)CC[C@]5(C)[C@H]4CC[C@]3(C)[C@H]1[C@@H]2C [TIGOGENIN] | 15.4 | -0.40 | – | – | – | cytotoxicity at 41 h, 10 µM (in vitro): -31.8%
NC[C@H]1O[C@H](O[C@H]2[C@H](O)[C@@H](O[C@H]3O[C@H](CO)[C@@H](O)[C@H](N)[C@H]3O)[C@H](N)C[C@@H]2N)[C@H](N)C[C@@H]1O [TOBRAMYCIN] | 4.08 | – | – | -0.49 | -40.8 | –
C[C@H]1CC[C@]2(NC1)O[C@H]1C[C@H]3[C@@H]4CC[C@H]5C[C@@H](O[C@@H]6O[C@H](CO)[C@H](O[C@@H]7O[C@H](CO)[C@@H](O)[C@H](O[C@@H]8OC[C@@H](O)[C@H](O)[C@H]8O)[C@H]7O[C@@H]7O[C@H](CO)[C@@H](O)[C@H](O)[C@H]7O)[C@H](O)[C@H]6O)CC[C@]5(C)[C@H]4CC[C@]3(C)[C@H]1[C@@H]2C [TOMATINE] | 92.9 | 0.04 | 2.7 | – | – | inhibition at 3.3 µM (Cryptosporidium parvum): 25%
CC(C)c1c(O)ccc2c1CC[C@H]1C(C)(C)CCC[C@]21C [TOTAROL] | -9.45 | – | – | -0.36 | -28.4 | –

Source: publication PMC6736568, “Discovery of Novel Anti-cryptosporidial Activities From Natural Products by in vitro High-Throughput Phenotypic Screening” (Frontiers in Microbiology, 2019)
